Results on 1 compound are retold here after patent publication US20070110818A1, “Milk fractions and milk preparations for treating and/or preventing cox-2 mediated diseases” (priority 2003, published 2007).

The test addresses T1, COX-2 (Homo sapiens, UniProt P35354).
T1 construct: treated with 100 nM (nmol/l) phorbol 12-myristate 13-acetate for 6 h at 37° C. to induce COX-2 isoenzyme; endogenous in cells; host or cells: HUV-EC-C (ATCC CRL1730), PMA-induced
T1 sequence (P35354 18-604): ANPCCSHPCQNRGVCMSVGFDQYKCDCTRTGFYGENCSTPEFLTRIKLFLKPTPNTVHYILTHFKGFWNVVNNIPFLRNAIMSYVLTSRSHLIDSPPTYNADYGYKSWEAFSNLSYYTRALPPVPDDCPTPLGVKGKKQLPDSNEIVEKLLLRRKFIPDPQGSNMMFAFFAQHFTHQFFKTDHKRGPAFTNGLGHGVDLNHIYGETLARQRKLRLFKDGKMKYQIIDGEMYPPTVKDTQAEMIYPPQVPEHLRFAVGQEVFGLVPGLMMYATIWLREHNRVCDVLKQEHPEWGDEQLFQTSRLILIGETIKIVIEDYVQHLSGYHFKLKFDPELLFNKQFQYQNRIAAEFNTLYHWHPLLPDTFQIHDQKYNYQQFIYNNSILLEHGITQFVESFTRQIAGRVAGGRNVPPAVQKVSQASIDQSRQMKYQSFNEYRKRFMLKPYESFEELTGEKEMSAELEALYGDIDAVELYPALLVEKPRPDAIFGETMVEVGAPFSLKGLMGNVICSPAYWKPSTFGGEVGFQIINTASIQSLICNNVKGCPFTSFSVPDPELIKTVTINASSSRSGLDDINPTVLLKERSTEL
The test is described as follows: COX-2 screening in PMA-induced HUV-EC-C cells (Prostaglandine-E2 production by RIA). It counts as cell-based. How it is done: HUV-EC-C cells (a permanent endothelial cell line derived from the vein of a normal human umbilical cord; ATCC CRL1730; M. Miralpeix, M. Camacho et al., Brit. J. Pharmacol. 121 (1997), 171-180), were seeded onto 96-well plates (RPMI 1640+10% FCS) and treated with 100 nM (nmol/l) phorbol 12-myristate 13-acetate for 6 h at 37° C. to induce COX-2 isoenzyme. 50 μM (μmol/l) arachidonic acid were then added and the cells were incubated in the presence of test compounds or mixtures for 30 min at 37° C. Prostaglandine-E2 production was measured by radioimmuno assay (RIA) and the radioactivity determined with a scintillation counter (Topcount, Packard) using a liquid scintillation cocktail (Packard).
The results obtained are expressed as a percent of control values and as a percent inhibition of control values obtained in the presence of the test compounds. The control values correspond to the COX-2 activity of HUV-EC-C cells after stimulation with Phorbol Myristate Acetate (PMA) during 6 hours at 37° C. (can be done also with Tumor Necrosis Factor type alpha: TNFα) in absence of test compound.
The concentration causing a half-maximal inhibition of control values (IC50 value) and Hill coefficients (nH) were determined for the reference compounds (cycloheximide) by nonlinear regression analysis of their inhibition curves. These parameters were obtained by Hill equation curve fitting. […]

For the compound `N[C@@H](CS)C(=O)O` [Cysteine], the “cyclooxygenase-2 inhibiting activity (in words)” value is recorded as “no effect”.
